Laboratory results published in US20230113037A1 (Bayer Aktiengesellschaft, priority 2019, published 2023).
Where two headings read alike, the source gives them in different places.

Experiments:
[1] = biological target: T1, AHR (Homo sapiens, UniProt P35869); assay: In vitro assay 1: antagonism in human cell line (AHR transactivation, firefly luciferase reporter, kynurenic acid prestimulated); type: cell-based; conditions: AHR Antagonism Human IC50 [M]
T1 construct: U87 MG glioblastoma cells (ATCC #HTB-14) endogenously expressing AHR; endogenous in cells; host or cells: U87 MG glioblastoma cells (ATCC #HTB-14)
T1 sequence (P35869 11-848): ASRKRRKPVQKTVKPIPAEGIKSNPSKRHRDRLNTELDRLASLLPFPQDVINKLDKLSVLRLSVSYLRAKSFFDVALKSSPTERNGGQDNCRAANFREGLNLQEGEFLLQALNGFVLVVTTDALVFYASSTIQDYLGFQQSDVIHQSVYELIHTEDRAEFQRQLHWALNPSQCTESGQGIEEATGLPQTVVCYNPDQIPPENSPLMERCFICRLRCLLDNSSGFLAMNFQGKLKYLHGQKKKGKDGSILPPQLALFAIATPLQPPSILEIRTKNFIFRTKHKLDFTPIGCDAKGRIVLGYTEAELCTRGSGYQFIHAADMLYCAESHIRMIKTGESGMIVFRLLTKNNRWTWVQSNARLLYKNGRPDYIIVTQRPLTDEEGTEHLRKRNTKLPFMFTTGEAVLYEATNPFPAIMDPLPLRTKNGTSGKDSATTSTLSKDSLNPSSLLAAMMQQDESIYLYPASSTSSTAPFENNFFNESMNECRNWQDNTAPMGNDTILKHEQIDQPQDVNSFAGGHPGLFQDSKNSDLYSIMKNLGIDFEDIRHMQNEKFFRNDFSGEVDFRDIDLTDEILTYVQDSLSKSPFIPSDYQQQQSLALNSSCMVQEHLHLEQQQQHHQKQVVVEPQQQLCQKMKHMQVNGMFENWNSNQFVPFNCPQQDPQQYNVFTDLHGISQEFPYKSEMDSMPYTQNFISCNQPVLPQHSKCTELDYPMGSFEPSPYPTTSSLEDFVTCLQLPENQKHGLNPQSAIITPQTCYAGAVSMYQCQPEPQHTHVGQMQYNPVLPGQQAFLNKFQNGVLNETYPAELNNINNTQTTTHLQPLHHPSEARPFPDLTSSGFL
Summary of the method: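 U87 MG glioblastoma cells with endogenous AHR, stably carrying a DRE-driven firefly luciferase reporter and constitutive Renilla reporter, prestimulated with kynurenic acid before compound addition. Firefly and Renilla read by dual luciferase; Renilla flags toxicity; normalized to controls (150 μM kynurenic acid + 5 μM staurosporine as full inhibition); repeat values averaged or median.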

[2] = biological target: T2, AHR (Mus musculus, UniProt P30561); assay: In vitro assay 3: antagonism in mouse cell line (AHR transactivation, firefly luciferase reporter, kynurenic acid prestimulated); type: cell-based
T2 sequence (P30561 1-848 P471L/N533S/M589L): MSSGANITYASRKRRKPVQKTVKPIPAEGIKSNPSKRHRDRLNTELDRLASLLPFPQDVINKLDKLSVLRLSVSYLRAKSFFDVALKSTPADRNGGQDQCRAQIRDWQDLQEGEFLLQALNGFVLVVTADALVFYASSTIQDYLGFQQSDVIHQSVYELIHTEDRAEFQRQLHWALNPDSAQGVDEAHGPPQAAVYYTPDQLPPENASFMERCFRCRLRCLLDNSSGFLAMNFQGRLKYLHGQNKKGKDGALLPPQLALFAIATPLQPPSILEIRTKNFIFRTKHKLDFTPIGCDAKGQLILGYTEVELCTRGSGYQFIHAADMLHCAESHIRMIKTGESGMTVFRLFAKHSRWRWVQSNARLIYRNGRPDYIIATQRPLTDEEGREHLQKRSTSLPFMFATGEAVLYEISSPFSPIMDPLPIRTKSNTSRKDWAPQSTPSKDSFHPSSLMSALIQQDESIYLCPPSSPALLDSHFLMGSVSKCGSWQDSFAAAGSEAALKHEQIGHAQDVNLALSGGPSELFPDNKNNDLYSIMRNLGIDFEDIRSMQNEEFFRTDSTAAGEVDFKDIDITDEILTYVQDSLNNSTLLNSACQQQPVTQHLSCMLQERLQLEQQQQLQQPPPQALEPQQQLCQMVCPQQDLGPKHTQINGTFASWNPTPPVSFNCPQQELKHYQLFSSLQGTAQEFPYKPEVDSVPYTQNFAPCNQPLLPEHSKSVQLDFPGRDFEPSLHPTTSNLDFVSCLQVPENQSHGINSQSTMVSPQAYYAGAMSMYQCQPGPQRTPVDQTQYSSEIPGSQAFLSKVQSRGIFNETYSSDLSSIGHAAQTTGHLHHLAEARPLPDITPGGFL
Summary of the method: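 Cells were first stimulated with kynurenic acid, then exposed to test compound, after which firefly luciferase from a DRE-containing AHR reporter was read out. Signal was scaled between positive and negative controls. Cells not given kynurenic acid provided the inhibition reference.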

[3] = mouse Hepa 1c1c7 cells, 200 μM kynurenic acid, 20 hours, read-out: AHR Antagonism Mouse IC50
[4] = Hepa 1c1c7 cells, 200 μM kynurenic acid, 20 hours, firefly luciferase reporter, read-out: AHR Antagonism Mouse IC50
[5] = read-out: AHR Antagonism Mouse IC50, mouse Hepa 1c1c7 cells, 200 μM kynurenic acid, 20 hours

Row | SMILES | IC50 [1] [M] | IC50 [2, 3] [nM] | IC50 ([1]; firefly luciferase reporter) [M] | IC50 [2, 4] [nM] | IC50 [2, 5] [nM]
1 | O=C1NCCCC[C@H]1Nc1nc2ccccc2c2nc(-c3cc(Br)ccc3OC(F)(F)F)nn12 [Example 505, (3R)-3-({2-[5-bromo-2-(trifluoromethoxy)phenyl][1,2,4]triazolo[1,5-c]quinazolin-5-yl}amino)azepan-2-one] | > 2e-05 | 50.7 |  |  | 
2 | Cn1cc(-c2nc3c4cccc(C#N)c4nc(N[C@@H]4CNCCNC4=O)n3n2)cn1 [Example 930, 2-(1-methyl-1H-pyrazol-4-yl)-5-{[(6R)-5-oxo-1,4-diazepan-6-yl]amino}[1,2,4]triazolo[1,5-c]quinazoline-7-carbonitrile] |  |  | 5.21e-06 | 14100 | 
3 | O=C1NCC[C@H]1Nc1nc2ccccc2c2nc(-c3ccccc3OC(F)F)nn12 [Example 473, (3R)-3-({2-[2-(difluoromethoxy)phenyl][1,2,4]triazolo[1,5-c]quinazolin-5-yl}amino)pyrrolidine-2-one] | 5.1e-08 | 17.9 |  |  | 
4 | CNCCNC(=O)[C@@H](C)Nc1nc2c(Br)cccc2c2nc(-c3cnn(C)c3)nn12 [Example 991, N^2-[7-bromo-2-(1-methyl-1H-pyrazol-4-yl)[1,2,4]triazolo[1,5-c]quinazolin-5-yl]-N-[2-(methylamino)ethyl]-D-alaninamide-hydrogen chloride (1/1)] |  |  | 3.13e-08 | 76.6 | 
5 | CC(C)c1noc(-c2nc3c4ccccc4nc(N[C@@H]4CCCCNC4=O)n3n2)n1 [Example 133, (3R)-3-({2-[3-(propan-2-yl)-1,2,4-oxadiazol-5-yl][1,2,4]triazolo[1,5-c]quinazolin-5-yl}amino)azepan-2-one] | 1.92e-08 | 32.7 |  |  | 
6 | CCCCNC(=O)[C@@H](C)Nc1nc2c(Br)cccc2c2nc(-c3ccc(Cl)cc3OC(F)F)nn12 [Example 684, N^2-{7-bromo-2-[4-chloro-2-(difluoromethoxy)phenyl][1,2,4]triazolo[1,5-c]quinazolin-5-yl}-N-butyl-D-alaninamide] | 3.39e-09 | 0.896 |  |  | 
7 | CC[C@@H](Nc1nc2ccccc2c2nc(-c3cc(F)ccc3OC(F)(F)F)nn12)C(N)=O [Example 496, (2R)-2-({2-[5-fluoro-2-(trifluoromethoxy)phenyl][1,2,4]triazolo[1,5-c]quinazolin-5-yl}amino)butanamide] | 4.66e-08 | 1.9 |  |  | 
8 | CC[C@H](Nc1nc2ccccc2c2nc(-c3ccccc3S(C)(=O)=O)nn12)C(N)=O [Example 450, (2S)-2-({2-[2-(methanesulfonyl)phenyl][1,2,4]triazolo[1,5-c]quinazolin-5-yl}amino)butanamide] | > 2e-05 | 8570 |  |  | 
9 | O=C1NCCCC[C@@H]1Nc1nc2ccccc2c2nc(-c3ccc(Cl)cc3OC(F)F)nn12 [Example 526, (3S)-3-({2-[4-chloro-2-(difluoromethoxy)phenyl][1,2,4]triazolo[1,5-c]quinazolin-5-yl}amino)azepan-2-one] | 1.47e-08 | 2.33 |  |  | 
10 | O=C1NCCNC[C@H]1Nc1nc2ccccc2c2nc(-c3cnn(CC4CC4)c3)nn12 [Example 416, (6R)-6-({2-[1-(cyclopropylmethyl)-1H-pyrazol-4-yl][1,2,4]triazolo[1,5-c]quinazolin-5-yl}amino)-1,4-diazepan-5-one] | 2.1e-06 | 354 |  |  | 
11 | Cn1cc(-c2nc3c4cccc(C(F)(F)F)c4nc(N[C@@H]4COCCNC4=O)n3n2)cn1 [Example 732, (6R)-6-{[2-(1-methyl-1H-pyrazol-4-yl)-7-(trifluoromethyl)[1,2,4]triazolo[1,5-c]quinazolin-5-yl]amino}-1,4-oxazepan-5-one] | 1.32e-09 | 6.14 |  |  | 
12 | CC[C@@H](Nc1nc2ccccc2c2nc(-c3ccccc3OC(F)F)nn12)C(N)=O [Example 476, (2R)-2-({2-[2-(difluoromethoxy)phenyl][1,2,4]triazolo[1,5-c]quinazolin-5-yl}amino)butanamide] | 3.93e-09 |  |  |  | 0.554
13 | COc1cccc(-c2nc3c4cc(F)ccc4nc(NC4CCNC4=O)n3n2)c1 (stereo not drawn) [Example 162, 3-{[9-fluoro-2-(3-methoxyphenyl)[1,2,4]triazolo[1,5-c]quinazolin-5-yl]amino}pyrrolidin-2-one] | 2.23e-08 | 25.5 |  |  | 
14 | CC[C@H](Nc1nc2ccccc2c2nc(-c3cn(C)nn3)nn12)C(N)=O [Example 690, (2S)-2-{[2-(1-methyl-1H-1,2,3-triazol-4-yl)[1,2,4]triazolo[1,5-c]quinazolin-5-yl]amino}butanamide] | > 2e-05 |  |  |  | > 20000
15 | CC[C@@H](Nc1nc2c(Br)cccc2c2nc(-c3ccc(Cl)cc3OC(F)(F)F)nn12)C(N)=O [Example 573, (2R)-2-({7-bromo-2-[4-chloro-2-(trifluoromethoxy)phenyl][1,2,4]triazolo[1,5-c]quinazolin-5-yl}amino)butanamide] | 3.36e-09 | 1.39 |  |  | 
16 | CCn1cc(-c2nc3c4cccc(Br)c4nc(N[C@@H]4CNCCNC4=O)n3n2)cn1 [Example 980, (6R)-6-{[7-bromo-2-(1-ethyl-1H-pyrazol-4-yl)[1,2,4]triazolo[1,5-c]quinazolin-5-yl]amino}-1,4-diazepan-5-one] |  |  | 5.22e-09 | 6.35 | 
17 | COc1ccc(-c2nc3c4cccc(Br)c4nc(N[C@H](C)C(=O)NCCN4CCN(C(=O)OC(C)(C)C)CC4)n3n2)cc1 [Example 890, tert-butyl 4-[2-({N-[7-bromo-2-(4-methoxyphenyl)[1,2,4]triazolo[1,5-c]quinazolin-5-yl]-D-alanyl}amino)ethyl]piperazine-1-carboxylate] |  |  | 4.05e-09 | 9.3 | 
18 | Cc1sccc1-c1nc2c3ccccc3nc(N[C@@H]3CCNC3=O)n2n1 [Example 349, (3R)-3-{[2-(2-methylthiophen-3-yl)[1,2,4]triazolo[1,5-c]quinazolin-5-yl]amino}pyrrolidin-2-one] | 5.16e-08 | 11.5 |  |  | 
19 | COc1ccc(-c2nc3c4cccc(Br)c4nc(N[C@H](C)C(=O)N4CCN(C)[C@H](C)C4)n3n2)cc1 [Example 913, (2R)-2-{[7-bromo-2-(4-methoxyphenyl)[1,2,4]triazolo[1,5-c]quinazolin-5-yl]amino}-1-[(3R)-3,4-dimethylpiperazin-1-yl]propan-1-one] |  |  | 1.32e-09 | 1.71 | 
20 | CC[C@@H](Nc1nc2c(Br)cccc2c2nc(-c3cnn(C)c3)nn12)C(N)=O [Example 696, (2R)-2-{[7-bromo-2-(1-methyl-1H-pyrazol-4-yl)[1,2,4]triazolo[1,5-c]quinazolin-5-yl]amino}butanamide] | 3.23e-09 | 8.97 |  |  | 
21 | N#Cc1cccc(-c2nc3c4ccccc4nc(N[C@@H]4CCCNC4=O)n3n2)c1 [Example 384, 3-(5-{[(3R)-2-oxopiperidin-3-yl]amino}[1,2,4]triazolo[1,5-c]quinazolin-2-yl)benzonitrile] | 2.73e-07 | 72.2 |  |  | 
